This is an account of results in PMC12406203 (Journal of Medicinal Chemistry, 2025).

What all share (assay): KINOMEscan
Common to all, as to format: binding

One experiment deals with T1, AXL (Homo sapiens, UniProt P30530).
T1 construct: purchased Eurofins DiscoverX, LLC; host or cells: E. coli BL21-derived (T7 phage) or HEK-293
T1 sequence (P30530 26-894): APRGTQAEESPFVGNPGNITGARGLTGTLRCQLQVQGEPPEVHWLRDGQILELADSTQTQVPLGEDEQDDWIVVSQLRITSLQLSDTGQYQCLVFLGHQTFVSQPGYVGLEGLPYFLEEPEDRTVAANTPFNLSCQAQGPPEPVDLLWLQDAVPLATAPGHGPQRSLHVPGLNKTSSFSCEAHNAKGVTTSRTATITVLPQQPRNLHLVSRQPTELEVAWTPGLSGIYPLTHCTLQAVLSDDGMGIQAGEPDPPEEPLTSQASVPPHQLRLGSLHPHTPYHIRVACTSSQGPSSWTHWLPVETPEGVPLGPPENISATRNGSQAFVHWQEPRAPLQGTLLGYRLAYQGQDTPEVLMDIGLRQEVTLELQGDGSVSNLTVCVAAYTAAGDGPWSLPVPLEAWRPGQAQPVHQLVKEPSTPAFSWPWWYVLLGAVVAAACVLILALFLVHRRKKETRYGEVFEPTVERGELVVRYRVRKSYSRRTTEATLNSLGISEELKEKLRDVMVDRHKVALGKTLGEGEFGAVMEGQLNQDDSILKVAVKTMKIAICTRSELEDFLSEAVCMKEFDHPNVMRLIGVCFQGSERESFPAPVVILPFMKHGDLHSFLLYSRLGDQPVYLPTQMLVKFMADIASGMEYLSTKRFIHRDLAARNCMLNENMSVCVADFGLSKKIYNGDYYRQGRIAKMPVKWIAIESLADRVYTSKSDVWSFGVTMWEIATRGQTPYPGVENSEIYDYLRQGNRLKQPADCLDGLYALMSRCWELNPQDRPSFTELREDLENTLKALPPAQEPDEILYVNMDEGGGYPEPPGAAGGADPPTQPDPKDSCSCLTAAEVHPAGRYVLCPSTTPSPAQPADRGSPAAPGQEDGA

For another experiment, the target named is T2, GSK3B (Homo sapiens, UniProt P49841).
T2 construct: purchased Eurofins DiscoverX, LLC; host or cells: E. coli (T7 phage) or HEK-293

In a further experiment the target is T3, PAK2 (Homo sapiens, UniProt Q13177).
T3 construct: purchased Eurofins DiscoverX, LLC; host or cells: E. coli (BL21-derived, T7 phage) or HEK-293

Another experiment has as its target T4, AKT1 (Homo sapiens, UniProt P31749).
T4 construct: purchased Eurofins DiscoverX, LLC; host or cells: E. coli BL21-derived (T7 phage) or HEK-293

A further experiment addresses T5, MARK3 (Homo sapiens, UniProt P27448).
T5 construct: purchased Eurofins DiscoverX, LLC; host or cells: E. coli (BL21-derived, T7 phage) or HEK-293

The target of another experiment is T6, DYRK1B (Homo sapiens, UniProt Q9Y463).
T6 construct: purchased Eurofins DiscoverX, LLC; host or cells: E. coli (T7 phage) or HEK-293

The next experiment addresses T7, CDK2 (Homo sapiens, UniProt P24941).
T7 construct: purchased Eurofins DiscoverX, LLC; host or cells: E. coli BL21-derived (T7 phage) or HEK-293

The target of a further experiment is T8, PAK4 (Homo sapiens, UniProt O96013).
T8 construct: purchased Eurofins DiscoverX, LLC; host or cells: E. coli BL21-derived host (T7 phage) or HEK-293

The target of a further experiment is T9, VEGFR2 (Homo sapiens, UniProt P35968).
T9 construct: purchased Eurofins DiscoverX, LLC; host or cells: E. coli BL21-derived host (T7 phage) or HEK-293

In the next experiment the target is T10, PDPK1 (Homo sapiens, UniProt O15530).
T10 construct: purchased Eurofins DiscoverX, LLC; host or cells: E. coli BL21-derived host (T7 phage) or HEK-293
T10 sequence (O15530 1-556): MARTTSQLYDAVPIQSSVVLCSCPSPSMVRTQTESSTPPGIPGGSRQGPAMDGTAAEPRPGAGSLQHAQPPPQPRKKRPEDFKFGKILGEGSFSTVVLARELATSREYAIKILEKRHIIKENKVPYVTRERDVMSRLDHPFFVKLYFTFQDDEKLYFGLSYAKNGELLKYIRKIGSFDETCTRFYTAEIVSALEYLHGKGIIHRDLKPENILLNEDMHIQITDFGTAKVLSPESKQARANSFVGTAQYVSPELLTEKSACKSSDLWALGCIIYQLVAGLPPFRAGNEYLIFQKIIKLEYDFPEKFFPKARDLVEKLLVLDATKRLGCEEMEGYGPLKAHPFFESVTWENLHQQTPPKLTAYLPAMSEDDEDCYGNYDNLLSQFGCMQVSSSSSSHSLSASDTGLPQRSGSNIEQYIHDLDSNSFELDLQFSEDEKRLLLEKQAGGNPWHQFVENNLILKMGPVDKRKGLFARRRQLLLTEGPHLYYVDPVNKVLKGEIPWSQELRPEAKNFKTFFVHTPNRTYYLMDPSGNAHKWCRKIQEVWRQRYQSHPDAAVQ

For the next experiment, the target named is T11, RET (Homo sapiens, UniProt P07949).
T11 construct: purchased Eurofins DiscoverX, LLC; host or cells: E. coli BL21-derived host (T7 phage) or HEK-293

The target of the next experiment is T12, MKNK2 (Homo sapiens, UniProt Q9HBH9).
T12 construct: purchased Eurofins DiscoverX, LLC; host or cells: E. coli (BL21-derived, T7 phage) or HEK-293

T5 sequence (P27448 whole entry): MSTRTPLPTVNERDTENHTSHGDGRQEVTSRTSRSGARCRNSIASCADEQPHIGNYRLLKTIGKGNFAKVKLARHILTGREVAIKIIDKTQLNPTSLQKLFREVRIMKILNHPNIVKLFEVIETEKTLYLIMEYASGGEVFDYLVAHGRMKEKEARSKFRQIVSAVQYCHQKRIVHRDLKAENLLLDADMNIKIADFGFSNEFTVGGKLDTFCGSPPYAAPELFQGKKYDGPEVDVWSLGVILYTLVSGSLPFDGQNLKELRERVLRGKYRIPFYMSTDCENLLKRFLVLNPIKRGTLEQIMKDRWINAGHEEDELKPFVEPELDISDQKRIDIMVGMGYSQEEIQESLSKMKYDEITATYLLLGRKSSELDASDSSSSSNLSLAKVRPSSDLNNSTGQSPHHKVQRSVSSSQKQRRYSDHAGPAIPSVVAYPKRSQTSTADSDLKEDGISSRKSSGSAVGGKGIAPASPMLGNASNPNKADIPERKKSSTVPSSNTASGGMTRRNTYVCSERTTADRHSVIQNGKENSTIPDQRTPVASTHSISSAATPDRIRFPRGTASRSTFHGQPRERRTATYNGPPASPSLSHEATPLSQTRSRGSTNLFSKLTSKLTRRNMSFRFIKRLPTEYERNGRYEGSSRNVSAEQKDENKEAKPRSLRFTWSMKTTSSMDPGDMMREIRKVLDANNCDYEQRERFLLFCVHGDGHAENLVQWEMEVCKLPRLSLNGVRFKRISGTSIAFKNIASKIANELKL
T6 sequence (Q9Y463 whole entry): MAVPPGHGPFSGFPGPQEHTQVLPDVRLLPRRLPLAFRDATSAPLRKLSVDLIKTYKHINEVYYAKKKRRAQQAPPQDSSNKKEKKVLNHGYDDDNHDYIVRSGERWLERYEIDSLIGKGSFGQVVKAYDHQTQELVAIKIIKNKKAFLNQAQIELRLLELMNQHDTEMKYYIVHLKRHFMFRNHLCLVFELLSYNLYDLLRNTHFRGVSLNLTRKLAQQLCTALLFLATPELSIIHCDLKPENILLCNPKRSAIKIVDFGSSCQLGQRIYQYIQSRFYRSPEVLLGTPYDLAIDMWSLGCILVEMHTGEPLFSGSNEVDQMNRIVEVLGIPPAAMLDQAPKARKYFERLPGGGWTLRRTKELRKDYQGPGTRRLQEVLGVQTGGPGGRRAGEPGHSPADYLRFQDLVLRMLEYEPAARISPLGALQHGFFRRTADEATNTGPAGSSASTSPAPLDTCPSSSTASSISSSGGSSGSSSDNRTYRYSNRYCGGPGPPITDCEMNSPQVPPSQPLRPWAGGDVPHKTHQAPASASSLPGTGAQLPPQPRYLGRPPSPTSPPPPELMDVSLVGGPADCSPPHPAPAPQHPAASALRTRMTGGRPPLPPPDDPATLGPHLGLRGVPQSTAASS
T3 sequence (Q13177 whole entry): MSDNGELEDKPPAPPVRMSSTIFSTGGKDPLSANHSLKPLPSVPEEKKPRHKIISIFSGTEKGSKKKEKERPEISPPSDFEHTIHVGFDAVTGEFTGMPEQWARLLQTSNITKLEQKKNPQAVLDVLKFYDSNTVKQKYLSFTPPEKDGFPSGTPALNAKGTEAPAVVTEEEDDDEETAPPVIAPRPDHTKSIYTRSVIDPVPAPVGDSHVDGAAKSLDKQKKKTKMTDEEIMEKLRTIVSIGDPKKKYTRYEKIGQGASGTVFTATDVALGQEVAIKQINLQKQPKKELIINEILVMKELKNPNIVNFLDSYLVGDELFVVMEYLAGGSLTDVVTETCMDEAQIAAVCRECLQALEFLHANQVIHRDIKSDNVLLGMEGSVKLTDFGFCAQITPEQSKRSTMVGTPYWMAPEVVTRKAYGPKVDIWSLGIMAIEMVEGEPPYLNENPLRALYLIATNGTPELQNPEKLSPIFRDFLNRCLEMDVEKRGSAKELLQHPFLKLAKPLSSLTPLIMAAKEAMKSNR
T8 sequence (O96013 whole entry): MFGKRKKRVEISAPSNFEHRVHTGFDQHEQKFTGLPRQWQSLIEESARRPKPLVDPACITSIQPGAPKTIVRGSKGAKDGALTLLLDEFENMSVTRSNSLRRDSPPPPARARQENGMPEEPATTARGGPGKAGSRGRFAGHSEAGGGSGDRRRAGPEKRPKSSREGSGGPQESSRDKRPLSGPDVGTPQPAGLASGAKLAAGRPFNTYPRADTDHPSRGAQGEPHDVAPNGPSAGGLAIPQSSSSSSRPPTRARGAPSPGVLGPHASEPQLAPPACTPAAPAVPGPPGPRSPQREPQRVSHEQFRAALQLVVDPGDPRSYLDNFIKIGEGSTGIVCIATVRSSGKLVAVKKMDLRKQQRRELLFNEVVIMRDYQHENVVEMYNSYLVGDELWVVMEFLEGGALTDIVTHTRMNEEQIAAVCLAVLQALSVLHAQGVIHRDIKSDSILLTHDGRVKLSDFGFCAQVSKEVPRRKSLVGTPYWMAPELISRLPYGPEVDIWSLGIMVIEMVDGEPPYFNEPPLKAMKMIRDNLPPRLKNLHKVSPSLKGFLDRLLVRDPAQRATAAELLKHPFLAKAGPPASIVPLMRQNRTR
T9 sequence (P35968 20-1356): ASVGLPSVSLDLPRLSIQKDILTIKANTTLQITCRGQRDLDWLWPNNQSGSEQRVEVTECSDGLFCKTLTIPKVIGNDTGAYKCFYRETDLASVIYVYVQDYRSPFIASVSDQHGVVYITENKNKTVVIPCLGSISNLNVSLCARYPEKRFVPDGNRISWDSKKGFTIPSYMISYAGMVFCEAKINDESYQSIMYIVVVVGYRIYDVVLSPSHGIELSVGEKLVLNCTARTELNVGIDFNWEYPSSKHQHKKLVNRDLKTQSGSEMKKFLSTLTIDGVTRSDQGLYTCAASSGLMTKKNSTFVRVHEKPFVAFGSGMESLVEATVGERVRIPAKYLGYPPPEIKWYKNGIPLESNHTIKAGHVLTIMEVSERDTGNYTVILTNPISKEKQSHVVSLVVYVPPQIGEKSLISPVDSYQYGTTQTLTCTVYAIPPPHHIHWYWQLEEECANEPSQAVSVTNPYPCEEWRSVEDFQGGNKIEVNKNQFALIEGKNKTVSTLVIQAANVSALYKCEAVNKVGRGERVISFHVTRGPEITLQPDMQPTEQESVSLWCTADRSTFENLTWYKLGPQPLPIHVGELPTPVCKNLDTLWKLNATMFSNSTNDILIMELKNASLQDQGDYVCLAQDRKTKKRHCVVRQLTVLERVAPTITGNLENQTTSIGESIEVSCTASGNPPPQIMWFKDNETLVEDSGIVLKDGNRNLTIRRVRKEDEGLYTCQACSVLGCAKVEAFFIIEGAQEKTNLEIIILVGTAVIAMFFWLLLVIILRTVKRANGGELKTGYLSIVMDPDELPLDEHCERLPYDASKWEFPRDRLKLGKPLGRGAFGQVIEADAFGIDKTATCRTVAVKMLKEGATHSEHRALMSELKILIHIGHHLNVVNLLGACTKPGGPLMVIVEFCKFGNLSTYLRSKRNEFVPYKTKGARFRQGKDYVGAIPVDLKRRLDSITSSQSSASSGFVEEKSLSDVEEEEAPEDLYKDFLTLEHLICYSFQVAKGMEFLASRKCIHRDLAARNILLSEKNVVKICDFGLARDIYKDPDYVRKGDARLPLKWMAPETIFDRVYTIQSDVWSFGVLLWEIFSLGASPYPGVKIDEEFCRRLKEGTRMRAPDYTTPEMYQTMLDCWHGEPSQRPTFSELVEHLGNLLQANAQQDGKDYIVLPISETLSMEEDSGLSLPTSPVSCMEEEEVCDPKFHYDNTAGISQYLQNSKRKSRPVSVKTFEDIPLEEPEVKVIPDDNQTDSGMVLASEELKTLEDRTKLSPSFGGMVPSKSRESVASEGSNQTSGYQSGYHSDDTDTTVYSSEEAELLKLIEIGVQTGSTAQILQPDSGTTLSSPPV
T11 sequence (P07949 29-1114): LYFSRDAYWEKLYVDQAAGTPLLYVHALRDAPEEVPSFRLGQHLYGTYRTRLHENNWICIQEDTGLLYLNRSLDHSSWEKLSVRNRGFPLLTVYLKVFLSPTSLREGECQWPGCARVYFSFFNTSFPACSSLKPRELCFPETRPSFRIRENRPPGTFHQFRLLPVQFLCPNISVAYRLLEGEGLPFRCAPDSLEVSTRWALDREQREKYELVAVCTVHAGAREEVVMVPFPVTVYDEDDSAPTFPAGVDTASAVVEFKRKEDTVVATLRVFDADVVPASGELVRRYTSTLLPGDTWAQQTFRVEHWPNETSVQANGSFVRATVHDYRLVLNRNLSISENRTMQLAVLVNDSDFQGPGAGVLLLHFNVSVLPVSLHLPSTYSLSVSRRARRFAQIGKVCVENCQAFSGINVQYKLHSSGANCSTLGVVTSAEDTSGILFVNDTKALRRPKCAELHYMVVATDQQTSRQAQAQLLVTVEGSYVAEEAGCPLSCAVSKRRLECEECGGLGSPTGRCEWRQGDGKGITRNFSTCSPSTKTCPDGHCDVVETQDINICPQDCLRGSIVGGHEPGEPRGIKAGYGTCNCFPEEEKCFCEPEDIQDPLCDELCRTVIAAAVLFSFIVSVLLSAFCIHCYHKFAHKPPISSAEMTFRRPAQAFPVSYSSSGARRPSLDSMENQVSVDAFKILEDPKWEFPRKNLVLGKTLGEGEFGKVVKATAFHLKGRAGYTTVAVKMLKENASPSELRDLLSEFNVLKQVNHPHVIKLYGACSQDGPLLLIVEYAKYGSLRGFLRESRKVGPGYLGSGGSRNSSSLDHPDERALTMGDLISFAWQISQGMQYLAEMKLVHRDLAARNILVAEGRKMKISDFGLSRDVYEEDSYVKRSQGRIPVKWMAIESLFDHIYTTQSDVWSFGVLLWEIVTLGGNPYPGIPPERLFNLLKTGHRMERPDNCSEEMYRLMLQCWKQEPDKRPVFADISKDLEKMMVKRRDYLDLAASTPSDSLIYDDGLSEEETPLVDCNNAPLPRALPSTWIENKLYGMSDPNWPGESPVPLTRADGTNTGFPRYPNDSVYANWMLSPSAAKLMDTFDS

Turning to `CC(C)Cn1ncc2cc(Cc3ccc(F)cc3F)c(C(=O)NCCN(C)C)cc21` [Compound 94, 5-(2,4-Difluorobenzyl)-N-(2-(dimethylamino)ethyl)-1-isobutyl-1H-indazole-6-carboxamide], the “RA @ 1000nM” value stood at 97% at AXL; 91% on GSK3B; 100% at PAK2; 100% at AKT1; 100% at MARK3; 100% at DYRK1B. Moreover, the “RA @ 1000nM” value on CDK2 is recorded as 82%; on PAK4 it was 97%; on VEGFR2 it was 100%; at PDPK1 it was 88%; on RET, 100%; at MKNK2, 76%. In addition, the “RA @ 10000nM” value worked out at 89% at AXL; 97% at GSK3B; 97% on PAK2; 75% at AKT1; 100% on MARK3; 85% on DYRK1B. Besides, the “RA @ 10000nM” value came out at 97% at CDK2; 96% on PAK4; 100% at VEGFR2; 74% on PDPK1; 100% at RET; 80% on MKNK2.

On to `CN(C)CCNC(=O)c1cc2c(cnn2CC2CCCCC2)cc1Cc1ccc(F)cc1F` [Compound 95, 1-(Cyclohexylmethyl)-5-(2,4-difluorobenzyl)-N-(2-(dimethylamino)ethyl)-1H-indazole-6-carboxamide], for which the “RA @ 1000nM” value at AXL is reported as 84%; on GSK3B, 100%; at PAK2, 100%; at AKT1, 100%; on MARK3, 79%; on DYRK1B, 95%. Further, the “RA @ 1000nM” value at CDK2 amounted to 99%; at PAK4 it was 100%; at VEGFR2 it was 100%; at PDPK1, 100%; on RET it was 100%; on MKNK2, 81%. The “RA @ 10000nM” value was found to be 83% on AXL; 80% on GSK3B; 95% at PAK2; 100% on AKT1; 86% at MARK3; 100% on DYRK1B. Besides, the “RA @ 10000nM” value stood at 100% at CDK2; 88% on PAK4; 100% on VEGFR2; 87% at PDPK1; 100% at RET; 67% on MKNK2.
